The experiment deals with (Homo sapiens, UniProt P07996). Briefly: Secondary Assay, inhibitory activity of thiadiazole and oxadiazole analogs as TGF-beta inhibitors. The class given is biochemical. The method, then:
A summary of the inhibitory activity of representative thiadiazole analogs (Tables i and ii) and oxadiazole analogs (Table ii) is shown below.
For initial screening, an ELISA-based screening assay was used in which purified human platelet TSP-1 was incubated with compounds and then incubated with recombinant latent TGF-β1 (purchased from R&D Systems). Activity is measured in a commercially available ELISA which detects only active TGF-β (R &D Systems). Activity in the presence of compounds is compared to activity in TSP-1+latent TGF-β samples without inhibitory compounds (Lu et al. (2016) Am J Pathol 186:678-690).
To specifically assess activity of compounds in liver cell specific assays, two different assays were used. In the first, human hepatic stellate cells were incubated overnight in low serum media to condition the media with secreted latent TGF-β. Purified TSP1 either pre-incubated with compounds or not will be added to cultures and then conditioned media harvested to assess TGF-β biological activity using the R&D Systems ELISA as above. Hepatic stellate cells will be purchased from commercial sources. Although hepatic stellate cells are the primary drivers of liver fibrosis, conditions which drive liver fibrosis can induce hepatocyte TSP-1 expression which can then have paracrine effects on controlling TGF-β activation in hepatic stellate cells. Furthermore, TGF-β can negatively impact hepatocyte regeneration following injury. Therefore, the ability of compounds to block TSP-1 activation of latent TGF-β will also be assessed in cultured primary human hepatocytes following the protocol described for the hepatic stellate cells. Similar approaches have successfully been used to screen compounds which inhibit human myeloma cell derived latent TGF-β activation by TSP-1 (Lu et al. (2016) Am J Pathol 186:678-690).

Molecules are shown by their SMILES. Counter-ions that a name gives are not always drawn.

Sequence of (Homo sapiens, UniProt P07996) (P07996 whole entry): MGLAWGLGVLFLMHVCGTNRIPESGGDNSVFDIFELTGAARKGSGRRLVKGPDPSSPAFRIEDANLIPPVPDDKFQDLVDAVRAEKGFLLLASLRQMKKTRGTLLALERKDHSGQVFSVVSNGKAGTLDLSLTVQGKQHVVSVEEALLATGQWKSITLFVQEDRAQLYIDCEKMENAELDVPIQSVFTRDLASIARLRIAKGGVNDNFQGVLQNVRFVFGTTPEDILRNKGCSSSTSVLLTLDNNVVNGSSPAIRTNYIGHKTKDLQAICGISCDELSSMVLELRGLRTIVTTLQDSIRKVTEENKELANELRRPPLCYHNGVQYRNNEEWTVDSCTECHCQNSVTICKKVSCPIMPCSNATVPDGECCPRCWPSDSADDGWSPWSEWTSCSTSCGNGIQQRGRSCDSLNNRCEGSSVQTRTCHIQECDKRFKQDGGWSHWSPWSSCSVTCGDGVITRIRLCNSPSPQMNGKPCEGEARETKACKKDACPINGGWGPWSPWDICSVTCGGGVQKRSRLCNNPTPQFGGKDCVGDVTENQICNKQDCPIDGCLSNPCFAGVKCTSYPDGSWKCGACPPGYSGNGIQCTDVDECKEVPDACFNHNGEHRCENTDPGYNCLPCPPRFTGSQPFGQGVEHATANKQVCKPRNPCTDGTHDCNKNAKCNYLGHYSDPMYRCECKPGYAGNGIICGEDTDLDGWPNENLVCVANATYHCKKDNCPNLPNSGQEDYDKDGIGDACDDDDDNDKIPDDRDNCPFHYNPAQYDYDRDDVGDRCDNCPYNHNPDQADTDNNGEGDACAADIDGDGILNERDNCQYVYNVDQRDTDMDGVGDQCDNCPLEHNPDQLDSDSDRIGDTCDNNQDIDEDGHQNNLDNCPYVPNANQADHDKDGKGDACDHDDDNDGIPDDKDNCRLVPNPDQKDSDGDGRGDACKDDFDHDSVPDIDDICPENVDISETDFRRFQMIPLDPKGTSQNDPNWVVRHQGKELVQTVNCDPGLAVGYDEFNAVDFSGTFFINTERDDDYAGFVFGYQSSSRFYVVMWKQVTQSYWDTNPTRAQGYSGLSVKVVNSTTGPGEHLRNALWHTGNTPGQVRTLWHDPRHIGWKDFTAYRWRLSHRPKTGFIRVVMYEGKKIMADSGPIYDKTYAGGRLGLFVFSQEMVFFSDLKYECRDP

For the molecule `CC(=O)NC(CCCCN)c1nnc(-c2ccc(F)cc2)s1` (stereo not shown) [Compound 39261, N-(5-Amino-1-(5-(4-fluorophenyl)-1,3,4-thiadiazol-2-yl)pentyl)acetamide], under “Table II”, the IC50 was found to be 0.324 µM.
The molecule `CC(=O)NC(Cc1ccc(CN)cc1)c1nnc(-c2cccc(OC(F)(F)F)c2)s1` (racemic) [Compound 41791] came in with an IC50 (Table I) of 0.061 µM.
For the setting “Table I”, `NCc1cccc(CC(NC(=O)C2CCCCC2)c2nnc(-c3cccc(OC(F)(F)F)c3)s2)c1` (stereo not shown) [Compound 42461, N-(2-(3-(aminomethyl)phenyl)-1-(5-(3-(trifluoromethoxy)phenyl)-1,3,4-thiadiazol-2-yl)ethyl)cyclohexanecarboxamide] displayed an IC50 of 0.005 µM.
In the case of `CC(=O)NC(Cc1ccc(CN)cc1)c1nnc(-c2cc(C(F)(F)F)cc(C(F)(F)F)c2)s1` (stereo not shown) [Compound 40653, N-(2-(4-(aminomethyl)phenyl)-1-(5-(3,5-bis(trifluoromethyl)phenyl)-1,3,4-thiadiazol-2-yl)ethyl)acetamide], where the note is “Table I”, half-maximal inhibition (IC50) required 0.039 µM. This IC50 is about 7.8-fold higher than that of the molecule before.
The molecule `CC(=O)NC(CCCCN)c1nnc(-c2ccncc2)o1` (stereo not shown) [Compound 40074, N-(5-Amino-1-(5-(pyridin-4-yl)-1,3,4-oxadiazol-2-yl)pentyl)acetamide] displayed an IC50 (Table II, cells that print μM) greater than 1 µM.
For `CC(=O)NC(Cc1ccc(CN)cc1)c1nnc(-c2cc(C)cc(OC(F)(F)F)c2)s1` (stereo not shown) [Compound 42470], the IC50 (Table I) is 0.008 µM.
The molecule `NCc1cccc(CC(NC(=O)C2CC2)c2nnc(-c3cccc(OC(F)(F)F)c3)s2)c1` (stereo not shown) [Compound 42468, N-(2-(3-(aminomethyl)phenyl)-1-(5-(3-(trifluoromethoxy)phenyl)-1,3,4-thiadiazol-2-yl)ethyl)cyclopropanecarboxamide] showed an IC50 (Table I) of 0.008 µM.
Under “Table II, cells that print μM”, `CC(=O)NC(CCCCN)c1nnc(-c2ccc(F)cc2F)s1` (stereo not shown) [Compound 39425, N-(5-Amino-1-(5-(2,4-difluorophenyl)-1,3,4-thiadiazol-2-yl)pentyl)acetamide] gave an IC50 greater than 1 µM.
`COc1cc(C)cc(-c2nnc(C(Cc3ccc(CN)cc3)NC(C)=O)s2)c1` (stereo not shown) [Compound 42473] registered a half-inhibitory concentration (IC50) (Table I) of 0.008 µM.
Regarding `COc1cccc(-c2nnc(C(Cc3ccc(CN)cc3)NC(C)=O)s2)c1` (stereo not shown) [Compound 41149, N-(2-(4-(aminomethyl)phenyl)-1-(5-(3-methoxyphenyl)-1,3,4-thiadiazol-2-yl)ethyl)acetamide hydrochloride], 0.183 µM corresponded to half-maximal inhibition (Table I) (IC50).
For the setting “Table I”, `CC(=O)N[C@H](Cc1ccc(CN)cc1)c1nnc(-c2cccc(OC(F)(F)F)c2)s1` (single isomer, unassigned) [Compound 41892] registered an IC50 of 0.0269 µM.
Still for that read-out and setting: to `CC(=O)N(C)C(Cc1ccc(CN)cc1)c1nnc(-c2cccc(OC(F)(F)F)c2)s1` (stereo not shown) [Compound 42335, N-(2-(4-(aminomethyl)phenyl)-1-(5-(3-(trifluoromethoxy)phenyl)-1,3,4-thiadiazol-2-yl)ethyl)-N-methylacetamide Hydrochloride] belongs 0.03 µM; to `CC(=O)NC(Cc1ccc(CN)cc1)c1nnc(-c2ccc(F)cc2)s1` (stereo not shown) [Compound 40051, N-(2-(4-(aminomethyl)phenyl)-1-(5-(4-fluorophenyl)-1,3,4-thiadiazol-2-yl)ethyl)acetamide], 0.049 µM; to `COc1cc(-c2nnc(C(Cc3ccc(CN)cc3)NC(C)=O)s2)cc(C(F)(F)F)c1` (stereo not shown) [Compound 42330, N-(2-(4-(aminomethyl)phenyl)-1-(5-(3-methoxy-5-(trifluoromethyl)phenyl)-1,3,4-thiadiazol-2-yl)ethyl)acetamide], 0.006 µM.
Same read-out and setting: the value for `CC(=O)NC(Cc1ccc(CN)cc1)c1nnc(-c2cccc(C(F)(F)F)c2)s1` (stereo not shown) [Compound 41152, N-(2-(4-(aminomethyl)phenyl)-1-(5-(3-(trifluoromethyl)phenyl)-1,3,4-thiadiazol-2-yl)ethyl)acetamide hydrochloride] was 0.009 µM.
On the same count and under the same terms, to `CC(=O)NC(Cc1ccc(CN)cc1)c1nnc(-c2cccc(OC(F)(F)F)c2)s1` (stereo not shown) [Compound 40000, N-(2-(4-(aminomethyl)phenyl)-1-(5-(3-(trifluoromethoxy)phenyl)-1,3,4-thiadiazol-2-yl)ethyl)acetamide] belongs 0.028 µM.

The IC50 is the concentration needed to halve the response being measured. Read a high IC50 as lower potency.

These data come from patent publication US11033535B2, “Oxadiazoles and thiadiazoles as TGF-β inhibitors” (Southern Research Institute, priority 2017, dated 2021).
